The subject of series [1] is formalin-induced pain. As to the kind of experiment: formalin test in mouse (licking time of injected paw). The class given is in vivo. As to conditions: administered orally 1 hour before formalin injection. The procedure:
The ability of compounds of the invention to inhibit pain in mouse has been assessed in the formalin test as described by Dubuisson and Dennis (Pain, 1977, 4:161-174). In this test 20 μl of 1% formalin was injected into the plantar surface of the mouse left hind paw. The amount of time, in seconds, the animals spent licking the injected paw for the first 5 minutes (early phase) and then from 20 to 60 minutes (late phase) after formalin was used as measurement of the intensity of pain. The compounds of the invention were administered orally 1 hour before formalin injection.

Series [2] addresses T1, strychnine insensitive glycine binding site associated with the NMDA receptor complex (Rattus norvegicus, UniProt P35439).
T1 construct: from tissue
As to the kind of experiment: affinity for the strychnine insensitive glycine binding site (procedure of Kishimoto H. et al). The procedure:
Thus the ability to bind at the strychnine insensitive glycine binding site was determined using the procedure of Kishimoto H et al., J Neurochem 1981, 37, 1015-1024.
The affinity of the compound of the invention for the strychnine insensitive glycine binding site was determined using procedure of Kishimoto H. et al […].

These results are taken from patent US6495566B2, “Tetrahydroquinoline derivatives as glycine antagonists” (Smithkline Beecham Corporation, priority 1998, dated 2002).

Some results are limits rather than exact numbers.

Broadly, the Ki is the dissociation constant of the complex between target and ligand, obtained from inhibition or displacement. A lower Ki goes with tighter binding. For orientation: melting point means the temperature, or range, at which the solid turns liquid.

Consider `O=C([O-])C1CC(=C2CCN(c3ccccc3)C2=O)c2ccc(Cl)cc2N1.[Na+]` (single isomer, unassigned; (-)) [Example 21, (−)-Sodium 7-chloro-4-(2-oxo-1-phenyl-3-pyrrolidinylidene)-1,2,3,4-tetrahydro-2-quinolinecarboxylate], for which the “ED50 (dose required to reduce the licking time by 50%)” value in series [1] is on record as 0.14 mg/kg po.
In the case of `O=C(O)C1CC(=C2CCN(c3cccnc3)C2=O)c2ccc(Cl)cc2N1` (racemic) [Example 22, (±)-Sodium 7-chloro-4-(2-oxo-1-(pyridn-3yl)-pyrrolidin-3-ylidene)-1,2,3,4-tetrahydro-2-quinolinecarboxylate], the Ki in series [2] was 0.0126 µM. In other words, the double-digit nanomolar range.
Take `O=C([O-])C1CC(C2=CCN(c3ccccc3)C2=O)c2ccc(Cl)cc2N1.[Na+]` (single isomer, unassigned; (-)) [Example 2, (−)-Sodium 7-chloro-4-(1-phenyl-Δ^3-pyrrolin-2-one-3yl)-1,2,3,4-tetrahydroquinoline-2-carboxylate]: the “ED50 (dose required to reduce the licking time by 50%)” value in series [1] turned out to be 0.03 mg/kg po.
In series [2], `O=C(O)C1CC(C2=CCN(c3ccccc3)C2=O)c2ccc(Cl)cc2N1` (single isomer, unassigned; (+)) [Example 17, (+)Sodium7-chloro-4-(1-phenyl-Δ^3pyrrolin-2-one-3yl)-1,2,3,4-tetrahydroquinoline-2-carboxylate] had an inhibitory constant (Ki) of […]. Moreover, in series [1], the “ED50 (dose required to reduce the licking time by 50%)” value stood at 0.3 mg/kg po.
`O=C(O)C1CC(=C2NC(=O)N(c3ccccc3)C2=O)c2ccc(Cl)cc2N1` (racemic) [Example 24, (±)-7-chloro-4-(2,5-dioxo-1-phenyl-imidazolidin-4-ylidene)-1,2,3,4-tetrahydro-2-quinolinecarboxylic acid] showed a Ki in series [2] of 0.0158 µM. In other words, the double-digit nanomolar range.
Turning to `O=C(O)C1CC(C2=CCN(c3ccccc3)C2=O)c2c(Cl)cc(Cl)cc2N1` (stereo not shown) [Example 29, Sodium, 5,7-Dichloro-4-(2-oxo-1-phenyl-Δ^3-pyrrolin-2-one-3-yl)-1,2,3,4-tetrahydro-quinoline-2-carboxylic acid; (enatiomer A)], the Ki in series [2] was 0.002 µM. Compared with the last molecule, the Ki is about 7.9-fold lower.
The same measure, in the same setting: to `CC(=O)Nc1ccc(N2CCC(=C3CC(C(=O)O)Nc4cc(Cl)ccc43)C2=O)cc1` (racemic) [Example 25, (+/−)-7-chloro-4-(2-oxo-1-(4-acetylamino)phenyl-pyrrolidin-3-ylidene)-1,2,3,4-tetrahydro-2-quinolinecarboxylic acid] belongs 0.0708 µM; to `O=C(O)C1CC(C2=CCN(c3cccnc3)C2=O)c2ccc(Cl)cc2N1` (racemic) [Example 14, (±)-Sodium 7-chloro-4-(1-(3-pyridin)-Δ^3-pyrrolin-2-one-3yl)-1,2,3,4-tetrahydroquinoline-2-carboxylate], 0.0126 µM.
On the same count and under the same terms, for `O=C(O)C1CC(C2=CCN(c3ccccc3)C2=O)c2c(Cl)cc(Cl)cc2N1` (racemic) [Example 16, (±)-Sodium 5,7-dichloro-4-(1-phenyl-Δ^3-pyrrolin-2-one-3yl)-1,2,3,4-tetrahydroquinoline-2-carboxylate] the value was 0.0158 µM.
Same read-out and setting: for `O=C(O)C1CC(C2=CCCN(c3ccccc3)C2=O)c2ccc(Cl)cc2N1` (racemic) [Example 15, (±)-Sodium 7-chloro-4-(1-phenyl-Δ^3-5,6-dihydro-pyridin-2-one-3yl)-1,2,3,4-tetrahydroquinoline-2-carboxylate] the value was 0.0186 µM; for `CS(=O)(=O)Nc1ccc(N2CC=C(C3CC(C(=O)O)Nc4cc(Cl)ccc43)C2=O)cc1` (racemic) [Example 19, (+/−)7-chloro-4-(1-(4-methanesulfonylamino)-phenyl-1-Δ^3-pyrrolin-2-one-3yl)-1,2,3,4-tetrahydroquinoline-2-carboxylic acid], 0.00126 µM; for `CC(=O)Nc1ccc(N2CC=C(C3CC(C(=O)O)Nc4cc(Cl)ccc43)C2=O)cc1` (racemic) [Example 18, (+/−)-7-chloro-4-(1-(4-acetylamino)-phenyl-Δ^3-pyrrolin-2-one-3yl)-1,2,3,4-tetrahydroquinoline-2-carboxylic acid], 0.0166 µM.
Molecule `O=C(O)C1CC(=C2CCN(c3ccccc3)C2=O)c2c(Cl)cc(Cl)cc2N1` (stereo not shown) [Example 30, Sodium 5,7-dichloro-4-(2-oxo-(1-phenyl)pyrrolidin-3-ylidene)-1,2,3,4-tetrahydro-2-quinoline carboxylate(enatiomer A)] had a Ki in series [2] of 0.02 µM.
Same read-out and setting: to `O=C(O)C1CC(C2=CCN(c3ccccc3)C2=O)c2ccc(Cl)cc2N1` (racemic) [Example 1, (±)Sodium 7-chloro-4-(1-phenyl-Δ^3-pyrrolin-2-one-3yl)-1,2,3,4-tetrahydroquinoline-2-carboxylate] belongs […].
In turn, `O=C(O)C1CC(=C2CCCN(c3ccccc3)C2=O)c2ccc(Cl)cc2N1` (racemic) [Example 23, (±)-7-chloro-4-(2-oxo-1-phenyl-3-piperidinylidene)-1,2,3,4-tetrahydro-2-quinolinecarboxylic acid] returned a melting point of over 130 °C.
